Drawing on ChEMBL document CHEMBL3507680, “University of Dundee, Gates Library screen for HepG2 cell viability”, this text covers cytotoxicity for 93 compounds.

Molecules are shown by their SMILES.

This data set is described as follows: Human HepG2 cell viability assay in 384 well format. In kind it is toxicity, cell-based. Further details: dose 125 nL, time 70.5 hour; concentration not given beside the values. The following applies: HepG2 cells, read-out: Inhibition.
For `CCOc1ccc(C(=O)NS(=O)(=O)c2cncc(Br)c2)cc1OC`, the cytotoxicity at 70.5 h was 18.9%.

As to `CC(NC(=O)COc1nc(C(C)(C)C)no1)c1ccco1` (stereo not drawn), the cytotoxicity at 70.5 h is -6.24%. Regarding `CN(Cc1ccc(OC(F)F)cc1)C(=O)CS(=O)(=O)c1ccc(Cl)cc1`, the cytotoxicity at 70.5 h is -9.26%. As for `CC(C)NC(=O)COc1nc(C(C)(C)C)no1`, the cytotoxicity at 70.5 h is -6.41%. For `Cc1ccc(CC(=O)NC(C)C(=O)N2CCS(=O)(=O)CC2)cc1` (stereo not drawn), the cytotoxicity at 70.5 h is -2.68%. The same measure for `Cn1cccc1C(=O)N1CCC2(CC1)CN(c1ccsc1)C(=O)CO2`: -15.9%; for `CC(=O)NCC(=O)N1C[C@@H](C)[C@@]2(CCN(c3ccsc3)C2=O)C1`: -10.5%.

For `Cc1nc(NCC2CC2)nc2c1COCC21CCN(C(=O)NC(C)C)C1` (stereo not drawn), the cytotoxicity at 70.5 h was -5.59%. With `O=C(c1ccccn1)N1CCC2(CC1)CN(c1cncnc1)C(=O)CO2`, the cytotoxicity at 70.5 h is -12.2%. Turning to `O=C(c1cscn1)N1CCC[C@]2(C[C@@H](OCC3CC3)CO2)C1`, the cytotoxicity at 70.5 h is -11%.

Turning to `C[C@H]1C[C@H]2CN(C(=O)CCc3ccccc3)CC[C@H]2O1`, the cytotoxicity at 70.5 h was -11.5%.

As for `COCCC1COC2(CCN(C(=O)Cc3ccccc3)CC2)C1` (stereo not drawn), the cytotoxicity at 70.5 h is -13.5%. The same measure for `O=C(CC1CC1)N1CCC2(CC1)CN(c1ncc(F)cn1)CCO2`: -9.05%.

For `COCC1CN(C(=O)CC2Cc3ccccc3C2)Cc2c1cnn2C` (stereo not drawn), the cytotoxicity at 70.5 h is -5.66%. As for `CCc1ncnc2c1CCN(C(=O)c1cccn1C)CC2`, the figure is 20.2%; as for `O=C(Cc1ccccc1)N1CCC2(CC1)CN(c1ncccn1)CCO2`, -9.68%; as for `c1ccc(COC[C@@H]2CC[C@H]3[C@H](CCN3c3ncccn3)O2)nc1`, -9.8%.

As for `CC(C)N(C)[C@@H]1CCN(C(=O)c2ccc[nH]2)[C@H]1Cc1cnn(C)c1`, the cytotoxicity at 70.5 h is -8.9%. Turning to `Cn1cc(C[C@H]2[C@@H](OCC3CC3)CCN2C(=O)c2ccc[nH]2)cn1`, the cytotoxicity at 70.5 h was 21.2%.

`COCCO[C@@H]1CCN(C(=O)c2ccc[nH]2)[C@H]1Cc1cnn(C)c1`: the cytotoxicity at 70.5 h was -7.64%. As for `CCOCC1CN(C(=O)Cc2ccccn2)Cc2c1cnn2CC` (stereo not drawn), the figure is 23.4%; as for `CC(C)N1CCC2(CC1)CC(c1cccnc1)C(=O)N2` (stereo not drawn), -10.2%. As for `O=C(c1cscn1)N1C[C@H]2CN(Cc3nccs3)C[C@H]2C1`, the figure is -1.36%; as for `CCOCc1ncn2c1CN(C(=O)c1ccoc1)CC2`, -12.2%. The same measure for `O=C(c1ccc[nH]1)N1CCCn2cnc(COCC3CC3)c2C1`: -9.86%.

`O=C(c1cccs1)N1CCc2ncnc(C3CCOC3)c2CC1` (stereo not drawn): the cytotoxicity at 70.5 h was -14.6%. The same measure for `O=C(c1cccs1)N1CCCn2cnc(COCC3CC3)c2C1`: -12.8%; for `Cc1occc1C(=O)N1CCc2ncnc(C3CCOC3)c2CC1` (stereo not drawn): -12.9%.

Regarding `O=C(c1ccco1)N1CCCn2cnc(COCC3CC3)c2C1`, the cytotoxicity at 70.5 h was -7.39%. As for `O=C(c1cscn1)N1CCC2(CCN(Cc3nccs3)CC2)CC1`, the figure is -14.7%. Take `CCS(=O)(=O)N1CC[C@H]2OCC[C@@]2(C(=O)NC)C1`: the cytotoxicity at 70.5 h is -9.74%. As for `CNC(=O)[C@@]12CCO[C@@H]1CCN(S(=O)(=O)c1ccccc1F)C2`, the figure is -13.3%; as for `CC1=C(CCN2CC[C@@H](N3CCC(O)CC3)[C@H](O)C2)C(C)(C)CCC1`, -5.02%; as for `Cc1ccc(C)c(NC(=O)N2C[C@H](N(C)C)C[C@H]2CO)c1`, -6.76%. The same measure for `COC[C@]1(O)CCN(c2cc(C3CC3)ncn2)CC1(C)C`: -10.5%; for `CCc1nc(C)c(C(=O)N(C)Cc2cnc3ccccn23)o1`: -7.82%.

As for `COc1ccc(CCC(=O)N2CCNCC2C(=O)N2CCCC2)cc1` (stereo not drawn), the cytotoxicity at 70.5 h was -6.16%. The same measure for `CCCc1cc(NCCN2CCNC2=O)n2nccc2n1`: -11.5%; for `CC1CCN(S(=O)(=O)N2CCc3c(c(C(=O)O)nn3CC3CC3)C2)CC1`: 1.09%.

In the case of `CCc1nnsc1C(=O)NCCC1CN(C(C)C)CCO1` (stereo not drawn), the cytotoxicity at 70.5 h was -7.17%. As for `COC(=O)C1CCCCN1C(=O)c1cn(C/C=C/c2ccccc2)nn1` (stereo not drawn), the cytotoxicity at 70.5 h worked out at 23.4%.

For `NCCO[C@H]1C[C@@H](O)C12CCN(C1Cc3ccccc3C1)CC2`, the cytotoxicity at 70.5 h stood at 34.2%. Regarding `COc1ccccc1[C@@H]1CN(Cc2cnc(N(C)C)nc2)C[C@H]1C(=O)O`, the cytotoxicity at 70.5 h was -6.22%.

As to `Cc1ccc2oc(=O)n(CCC(=O)N3CCCC4(CNC(=O)O4)C3)c2c1` (stereo not drawn), the cytotoxicity at 70.5 h was -1.82%. As to `CCCN1CCCC2(CCN(C(=O)CCCn3cncn3)C2)C1=O` (stereo not drawn), the cytotoxicity at 70.5 h is -4.88%.

Take `CCn1ccnc1CN(C)c1cc(C2CCCNC2)nc(C)n1` (stereo not drawn): the cytotoxicity at 70.5 h is -1.8%. As for `COC[C@@]12CC[C@@H](N3CCOCC3)C[C@H]1CCN(c1nc(CO)cs1)C2`, the figure is 10.8%; as for `CCOCc1nc2c(c(N3CC=CC3)n1)CCN(Cc1ccco1)CC2`, -3.14%; as for `COc1cnc(N2C[C@@H](CN3CCOCC3)C[C@H](CO)C2)nc1`, -2.56%. On to `CC(C)Oc1ccc(CN2CCC(Cc3nnc(CO)n3C)CC2)cc1`, for which the cytotoxicity at 70.5 h was -0.794%. `Cn1c(CN2CCC(O)CC2)nnc1C1CCCN(c2ccncc2)C1` (stereo not drawn): the cytotoxicity at 70.5 h is -9.58%.

On to `COc1ccc(C(C(=O)O)N(C)Cc2ccon2)cc1Cl` (stereo not drawn), for which the cytotoxicity at 70.5 h was -4.56%. The same measure for `CCC[C@H]1CN(S(=O)(=O)c2ccc(-c3c(C)noc3C)s2)C[C@@H]1N`: -4.66%; for `O=C(CCCn1ccnc1)N[C@H]1CN(C2CCCC2)C[C@@H]1C1CC1`: -11.7%. Consider `COCc1c(C(=O)N2CCCC(N(C)Cc3ccccc3)C2)noc1C` (stereo not drawn), for which the cytotoxicity at 70.5 h is -3.62%. As for `Cc1cc(C)n(Cc2cc(C(=O)N3CCCC3c3nccs3)n[nH]2)n1` (stereo not drawn), the cytotoxicity at 70.5 h was -13.2%. The same measure for `Cn1ncc(N2CCC(CNC3Cc4ccccc4C3)C2)cc1=O` (stereo not drawn): 3.7%; for `COc1ccccc1OC1CCN(C(=O)c2cnc(C)cc2C)CC1`: -5%; for `O=C1CCOCCN1Cc1ccc(Cl)c(F)c1`: 23.1%. The same measure for `COCc1cc(NCc2ccccc2-n2cncn2)ncn1`: -10.8%; for `COCc1ncc(CN2CCC3(CCNC(=O)CC3)CC2)cn1`: -5.72%; for `CCOC(=O)CC(C)Nc1nc(C(C)(C)C)nc2c1cnn2C` (stereo not drawn): 22.1%. For `CCCn1ncc(-c2ccnc(NC3CCCc4ccccc43)n2)c1C` (stereo not drawn), the cytotoxicity at 70.5 h came to 55.9%. The same measure for `O=C1NCCN(Cc2ccoc2)C1CC(=O)N1CCc2sccc2C1` (stereo not drawn): -0.766%. The same measure for `CCCS(=O)(=O)N1CCC2(CCC(=O)N(CCc3cccnc3)C2)CC1`: -10.9%; for `COCCC1COC2(CCN(C(=O)c3ccncc3)CC2)C1` (stereo not drawn): 30.8%. The same measure for `CCO[C@@H]1CCN(C(=O)c2ccc[nH]2)[C@@H]1Cc1cccnc1`: -6.51%; for `Cc1nc(COC[C@H]2CC[C@H]3[C@H](CCN3c3ncccn3)O2)cs1`: -6.71%; for `Cn1nc(Cn2ccnc2)c2c1CN(C(=O)c1ccoc1)C2`: -9.72%. On to `O=C(c1ccc(F)cc1)N1CC[C@H]2[C@H]1CCN2CC1CCOCC1`, for which the cytotoxicity at 70.5 h is -6.57%. As for `Cc1cccc(C(=O)N2CCc3ncnc(C4CCOC4)c3CC2)n1` (stereo not drawn), the figure is -0.465%; as for `Cn1cc(N2C(=O)CC[C@@H]3[C@H]2CCN3C(=O)c2cscn2)cn1`, -10.2%.

With `Cc1cccc(N2CC3(CCN(Cc4nccn4C)C3)CC2=O)c1` (stereo not drawn), the cytotoxicity at 70.5 h was -8.56%. As for `Cn1ccnc1CN1CCC2(CC(=O)N(c3ccc4c(c3)OCO4)C2)C1` (stereo not drawn), the figure is -17.1%. As for `Cc1oncc1C(=O)N1CC[C@H]2[C@@H]1CCC(=O)N2c1cccnc1`, the figure is -14.4%. The same measure for `O=C(c1cscn1)N1CCC2(CN(Cc3nccs3)C2)C1`: -11.9%; for `Cn1cc(CN2CC[C@@H]3[C@@H]2CCN3C(=O)Cc2cccc(F)c2)cn1`: -4.59%; for `O=C(c1cccnc1)N1CCc2ncnc(N3CCOCC3)c2CC1`: -7.42%. Turning to `Cn1cc(CN2CC[C@@H]3[C@@H]2CCN3C(=O)c2cccc(F)c2)cn1`, the cytotoxicity at 70.5 h is -14.7%.

For the compound `CN(C)CCN1C2(CCN(Cc3nccs3)C2)c2ccccc2S1(=O)=O` (stereo not drawn), the cytotoxicity at 70.5 h was 24.4%.

In the case of `c1ccc(OC2COC3(CCN(CC4CC4)CC3)C2)nc1` (stereo not drawn), the cytotoxicity at 70.5 h is 2.65%. As for `Cn1ncc2c1CN(C(=O)Cc1ccccn1)CC2COCC1CC1` (stereo not drawn), the figure is -10.6%.

In the case of `CCn1ncc2c1CN(C(=O)Cc1ccccn1)CC2COC` (stereo not drawn), the cytotoxicity at 70.5 h was -3.07%. As for `Cc1cnc(N2CC[C@@H]3O[C@H](COCc4ccccn4)CC[C@@H]32)nc1`, the figure is -1.58%; as for `c1ccc(COC[C@H]2CC[C@H]3[C@H](CCN3c3ncccn3)O2)nc1`, -3.8%. The same measure for `c1ccc(O[C@H]2CO[C@@]3(CCN(Cc4ccc5c(c4)OCO5)C3)C2)nc1`: 0.478%; for `O=C(NCc1cccnc1)[C@H]1CC[C@@H]2[C@@H](CCN2c2ncccn2)O1`: -6.01%; for `O=C(c1ccco1)N1CC[C@@H](N2CCOCC2)[C@@H]1Cc1ccncc1`: -4.82%. The same measure for `Cc1ccc(N2CCO[C@H]3CN(Cc4ccoc4)C[C@H]32)nn1`: 6.75%. With `CN(Cc1cccnc1)C1CC2(CCN(Cc3ccccn3)CC2)C1`, the cytotoxicity at 70.5 h was -11.6%. As for `CN(Cc1ccco1)[C@@H]1CN(Cc2cccnc2)[C@@H]2CCCO[C@H]12`, the figure is -12.5%; as for `c1cc(COC[C@]23COC[C@H]2CN(Cc2ccncc2)C3)ccn1`, 9.04%. The same measure for `c1ccc(CN2CCC3(CC2)CCN(Cc2cccnc2)C3)nc1`: -9.45%.
